Data as given in US20230405156A1, “METHODS OF DIAGNOSING AND PROGNOSING CANCERS OF THE HEAD AND NECK” (priority 2021, published 2023).

Key:
C666-1 cells [1] = test: MTT-based cell viability assay (in vitro proliferation/survival); settings: 7 days, dilutions starting from 10 μM
Protocol: (§1) Culture of the cell lines. C666-1 cells were cultured in RPMI-1640 with 25 mM Hepes (Lonza, Berlin, Germany) supplemented with 10% heat-inactivated FCS (Gibco, Carlsbad, CA), 2 mM L-Glutamine, 100 units/ml penicillin (Gibco), and 0.1 mg/ml streptomycin (Gibco). Cells were maintained at 37° C., 5% CO2 and passaged every 7 days at a 1:2 ratio using accutase (Sigma, St. Louis, MO, USA). Seventy-five percent of culture medium was replaced by fresh medium every 2-3 days. NPC43 and C17 cell lines were cultured in RPMI-1640 with 25 mM Hepes (Lonza, Berlin, Germany) supplemented with 10% heat-inactivated FCS (Gibco, Carlsbad, CA), 2 mM L-Glutamine, 100 units/ml penicillin (Gibco) and 0.1 mg/ml streptomycin (Gibco) and 4 μM Y27632 (Promocell, Heidelberg, Germany). Cells were maintained at 37° C., 5% CO2 and passaged 5 days at a 1:4 ratio using accutase (Sigma, St. Louis, MO, USA). Culture medium was replaced by fresh medium every 2 to 3 days.
(§2) MTT-based cell viability assay. Two days prior addition of test compounds, NPC cells were plated at a density of 2×10^4 cells/well in 96-well plates. Compounds were prepared as advised by manufacturers, diluted half logarithmic in medium and added to the wells in quadruplicate starting from 10 μM (30 μM for cisplatin). PEN-211 containing medium was removed after 2 h, cells were washed with PBS and fresh medium was added. Plates were incubated in a humified chamber for 7 days; 50% of medium were exchanged every other day with fresh drug dilutions. MTT (3-[4,5-dimethylthiazol-2-yl]-2,5 diphenyl tetrazolium bromide) reagent (20 μl/well of 5 mg/ml solution) (Sigma-Aldrich) was added and solubilized after 4 h using 100 μl of a […] SDS/0.01M HCl solution. Dual absorbance was measured after 5 h in a microplate reader (Epoch BioTek, BioTek Instruments, Bad Friedrichshall, Germany) using 550 nm as measurement and 655 nm as reference filter. After subtraction of background absorbance, fractions of surviving cells were obtained by normalization to the mean of nontreated samples.

NPC43 cells = test: as above; settings: 7 days, dilutions starting from 10 μM
Protocol: as §1, §2

C666-1 cells [2] = test: RNA-seq analysis of C666-1 cells treated with SSTR2-targeted drugs; assay type: cell-based; settings: for cell senescence pathways (geneset enrichment) / pathways related to somatostatin biology such as interleukin signaling (geneset enrichment) / cell death/apoptotic pathways (geneset enrichment): 24 h post-treatment; for cell death/apoptotic pathways (geneset enrichment): lanreotide or octreotide; for SSTR2 expression (RNA-seq): lanreotide or octreotide treatment
Protocol: RNA-seq analysis. C666-1 cells were seeded at a density of 1×10^6/well in six-well plates 2 days prior to compound addition. […] Untreated and DMSO-treated (1:2000 in medium) wells were used as controls. 24 and 72 h post-PEN-221 addition, DNA and RNA extraction was performed from separate wells using Quick-DNA Plus and Direct-zol RNA Plus Kit (Zymo Research, Irvine, CA, USA) according to the manufacturers' instructions.
RNA concentration was normalized to 100 ng/50 μl and Illumina libraries prepared using a NEBNext Poly(A) mRNA Magnetic Isolation Module in conjunction with a NEBNext Ultra II Directional RNA Library Prep Kit (New England Biolabs), according to the manufacturer's instructions using adapters diluted 1:50. Libraries were quantitated using the Agilent High Sensitivity D1000 ScreenTape System on a 2200 Tapestation (Agilent), pooled at equimolar concentration, denatured and sequenced on a NextSeq 500 (Illumina). RNA sequencing transcript abundance was estimated from fastq files using the reference-free quantification tool salmon with the gencode GRCh37 transcript annotation. Differential expression analysis was performed using DESeq237 with treatment, time and batch (where applicable) as covariates. Geneset enrichment analysis was performed using the GSEA function from clusterProfiler, with the reactome database pathways on the gene DESeq2 Wald statistics and a minimum and maximum pathway size of 25 and 500, respectively.

[3] = test system: LMP1-induced SSTR2 expression in NP69 cells; test: LMP1-induced SSTR2 expression in NP69 cells under pathway inhibitors; assay type: cell-based, human; settings: NP69 cells expressing LMP1
Source text: FIGS. 2A-2K. EBV infection is associated with SSTR2 upregulation in NPC—in vitro experiments and external validation dataset. a Immunofluorescence analysis of EBNA1 (red) and SSTR2 (green) expression in two representative examples of cultured primary respiratory epithelial cells before and after infection with the epitheliotropic M81 EBV strain. Nuclei are counterstained with DAPI (blue); Replication (n=5). b Percentages of cells positive for EBNA1 or co-expression of SSTR2 and EBNA1 c LMP1 induces SSTR2 expression in NP69, an immortalized normal nasopharyngeal epithelial cell line (relative quantities of SSTR2 were calculated using the comparative threshold cycle method and normalized using human beta-actin as endogenous control. Data is presented as a ratio relative to vector control). d LMP1-mediated SSTR2 induction in NP69 cells is inhibited by ectopic expression of TRAF3, a negative regulator of NF-κB. e In NP69 cells, LMP1-induced SSTR2 expression is suppressed by the NF-κB inhibitor BAY 11-7085 and MEK inhibitor U0126. f Both CTAR1 and CTAR2 regions of LMP1 (FIG. 6) are essential for LMP1-mediated SSTR2 induction. […] The color of the samples is based on unsupervised hierarchical clustering. […] Middle panel, Microarray SSTR2 expression is positively correlated with viral LMP1 expression (W=129, p=0.041, Wilcoxon two-sided test). […]

[4] = test system: SSTR2 expression in C666-1 cells; test: SSTR2 expression in C666-1 cells under pathway inhibitors; assay type: cell-based
SSTR = settings: five patients with primary EBV-positive NPC; cited from earlier work

Row | SMILES | in vitro proliferation (C666-1 cells [1]) | in vitro proliferation (NPC43 cells) | cell senescence pathways (geneset enrichment) (C666-1 cells [2]) | pathways related to somatostatin biology such as interleukin signaling (geneset enrichment) (C666-1 cells [2]) | cell death/apoptotic pathways (geneset enrichment) (C666-1 cells [2]) | SSTR2 expression (RNA-seq) (C666-1 cells [2]) | LMP1-induced SSTR2 expression [3] | SSTR2 expression [4] | cell senescence pathways (geneset enrichment) (C666-1 cells [2]; listed as Lanreotide) | tumor uptake (SSTR)
1 | C[C@@H](O)[C@@H]1NC(=O)[C@H](CCCCN)NC(=O)[C@@H](Cc2c[nH]c3ccccc23)NC(=O)[C@H](Cc2ccccc2)NC(=O)[C@@H](NC(=O)[C@H](N)Cc2ccccc2)CSSC[C@@H](C(=O)N[C@H](CO)[C@@H](C)O)NC1=O [octreotide] | did not affect in vitro proliferation | did not affect in vitro proliferation | upregulation of cell senescence pathways | induced upregulation | no changes | did not affect SSTR2 expression | – | – | – | –
2 | N#CC(=C(/N)Sc1ccccc1N)/C(C#N)=C(\N)Sc1ccccc1N [U0126] | – | – | – | – | – | – | suppressed | suppressed | – | –
3 | CC(C)[C@@H]1NC(=O)[C@H](CCCCN)NC(=O)[C@@H](Cc2c[nH]c3ccccc23)NC(=O)[C@H](Cc2ccc(O)cc2)NC(=O)[C@@H](NC(=O)[C@H](N)Cc2ccc3ccccc3c2)CSSC[C@@H](C(=O)N[C@H](C(N)=O)[C@@H](C)O)NC1=O [lanreotide] | did not affect in vitro proliferation | did not affect in vitro proliferation | upregulation of senescence pathways | induced upregulation | no changes | did not affect SSTR2 expression | – | – | upregulation of cell senescence pathways | –
4 | C[C@@H](O)[C@@H]1NC(=O)[C@H](CCCCN)NC(=O)[C@@H](Cc2c[nH]c3ccccc23)NC(=O)[C@H](Cc2ccc(O)cc2)NC(=O)[C@@H](NC(=O)[C@@H](Cc2ccccc2)NC(=O)CN2CCN(CC(=O)[O-])CCN(CC(=O)[O-])CCN(CC(=O)[O-])CC2)CSSC[C@@H](C(=O)N[C@H](CO)[C@@H](C)O)NC1=O.[68Ga+3] [68Ga-DOTA-(Tyr3)-octreotide, ^68Ga-labeled 1,4,7,10-tetraazacyclododecane-N,N9,N99,N999 tetraacetic acid-D-Phe1-Tyr3-octreotide (DOTA-TOC)] | – | – | – | – | – | – | – | – | – | increased uptake
5 | CC(C)(C)c1ccc(S(=O)(=O)/C=C/C#N)cc1 [BAY 11-7085] | – | – | – | – | – | – | suppressed | suppressed | – | –
